Laboratory results from patent publication US20240158446A1, “CYCLIC COMPOUND HAVING SELECTIVE INHIBITORY ACTION ON KRAS OVER HRAS AND NRAS” (CHUGAI SEIYAKU KABUSHIKI KAISHA, priority 2021, published 2024).
Read-outs that look alike come from different tables or passages of the source. Where a SMILES comes first, the peptide text is derived from it. Bridges are numbered along the chain shown (N, C = ends). [ ]: non-standard residue; d: D form. The star is where a group is joined. hPhe(3-Cl-4-CF3) = N[C@@H](CCc1ccc(C(F)(F)F)c(Cl)c1)C(=O)O; NPrPhe(4-CF3) = CCCN[C@@H](Cc1ccc(C(F)(F)F)cc1)C(=O)O; NMeGly(cPent) = CN[C@H](C(=O)O)C1CCCC1; NMeD = CN[C@@H](CC(=O)O)C(=O)O; NMeL = CN[C@@H](CC(C)C)C(=O)O; NMeA = CN[C@@H](C)C(=O)O; Pyrrolidide = C1CCN(*)C1; Ac5c = NC1(C(=O)O)CCCC1; Aze = O=C(O)[C@@H]1CCN1; Sar = CNCC(=O)O

Legend:
[1] = target: GDP-bound NRAS wild-type protein (Homo sapiens, UniProt P01111); assay: Binding to NRAS by surface plasmon resonance (SPR), Single Cycle Kinetics; settings: SPR, GDP-bound NRAS wild-type protein vs GDP-bound KRAS wild-type protein
GDP-bound NRAS wild-type protein, sequence (P01111 whole entry): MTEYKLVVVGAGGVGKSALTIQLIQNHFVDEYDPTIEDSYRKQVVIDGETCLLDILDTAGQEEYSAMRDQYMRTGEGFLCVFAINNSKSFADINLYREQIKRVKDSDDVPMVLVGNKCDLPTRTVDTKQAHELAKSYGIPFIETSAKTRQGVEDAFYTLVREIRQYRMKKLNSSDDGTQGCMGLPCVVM

[2] = target: GDP-bound KRAS wild-type protein (Homo sapiens, UniProt P01116); assay: Binding to KRAS by surface plasmon resonance (SPR), Single Cycle Kinetics; settings: GDP-bound KRAS wild-type protein, read-out: KRAS KD
GDP-bound KRAS wild-type protein, sequence (P01116 whole entry): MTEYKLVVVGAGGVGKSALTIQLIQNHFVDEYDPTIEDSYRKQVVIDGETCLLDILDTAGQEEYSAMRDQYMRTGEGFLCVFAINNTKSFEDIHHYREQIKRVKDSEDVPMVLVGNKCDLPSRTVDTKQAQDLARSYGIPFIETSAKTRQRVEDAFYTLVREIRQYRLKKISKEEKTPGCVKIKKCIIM

[3] = target: GDP-bound HRAS wild-type protein (Homo sapiens, UniProt P01112); assay: Binding to HRAS by surface plasmon resonance (SPR), Single Cycle Kinetics; settings: SPR, GDP-bound HRAS wild-type protein vs GDP-bound KRAS wild-type protein
GDP-bound HRAS wild-type protein, sequence (P01112 whole entry): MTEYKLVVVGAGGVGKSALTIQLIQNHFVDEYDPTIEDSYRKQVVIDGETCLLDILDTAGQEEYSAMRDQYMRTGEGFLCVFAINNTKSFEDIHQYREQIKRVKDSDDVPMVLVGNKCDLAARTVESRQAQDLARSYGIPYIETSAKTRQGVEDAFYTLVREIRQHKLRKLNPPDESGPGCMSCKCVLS

[4] = SPR Single Cycle Kinetics, 1:1 binding model

Row | SMILES | Kd ([2]; SPR, Single Cycle Kinetics) | NRAS/KRAS (ratio of KD value for NRAS to KD value for KRAS) [1] | HRAS/KRAS (ratio of KD value for HRAS to KD value for KRAS) [3] | further results
1 | CCCN1C(=O)[C@@H]2CCN2C(=O)[C@H](C)N(C)C(=O)[C@H]([C@@H](C)CC)NC(=O)[C@H](CC(C)C)N(C)C(=O)C[C@@H](C(=O)N2CCCC2)N(C)C(=O)[C@H](C2CCCC2)N(C)C(=O)C2(CCCC2)NC(=O)[C@@H]2CCCN2C(=O)[C@H](CCc2ccc(C(F)(F)F)c(Cl)c2)NC(=O)CN(C)C(=O)[C@@H]1Cc1ccc(C(F)(F)F)cc1 [PP0179] ([NMeL]I[NMeA][Aze][NPrPhe(4-CF3)][Sar][hPhe(3-Cl-4-CF3)]P[Ac5c][NMeGly(cPent)][NMeD]-Pyrrolidide; lactam N-11) | – | C (A compound having a KD ratio of 0.1 or more and less than 3 is denoted as C) | B (a compound having 3 or more and less than 10 is denoted as B) | Kd [2, 4]: 0.11 nM
2 | CCO[C@@H]1CCN2C(=O)[C@H](CCc3cc(F)c(C(F)(F)F)c(F)c3)NC(=O)CN(C)C(=O)[C@H](Cc3ccc(C(F)(F)F)cc3)N3CCCC[C@@H](C3=O)N(C)C(=O)CN(C)C(=O)[C@H]([C@@H](C)CC)NC(=O)[C@H](CC(C)C)N(C)C(=O)C[C@@H](C(=O)N3CCOCC3)N(C)C(=O)[C@H](C3CCCC3)N(C)C(=O)C3(CCC3)NC(=O)[C@H]12 [PP1079] | 0.23 nM | B (a compound having 3 or more and less than 10 is denoted as B) | B (a compound having 3 or more and less than 10 is denoted as B) | –
3 | CC[C@H](C)[C@@H]1NC(=O)[C@H](CC(C)C)N(C)C(=O)C[C@@H](C(=O)N2CCOCC2)N(C)C(=O)[C@H](C2CCCC2)N(C)C(=O)C2(CCC2)NC(=O)[C@@H]2C[C@@H](OCC3CCCC3)CN2C(=O)[C@H](CCc2cc(F)c(C(F)(F)F)c(F)c2)NC(=O)CN(C)C(=O)[C@H](Cc2ccc(C(F)(F)F)cc2)N2CCCC[C@@H](C2=O)N(C)C(=O)CN(C)C1=O [PP1015] | 5 nM | C (A compound having a KD ratio of 0.1 or more and less than 3 is denoted as C) | C (A compound having a KD ratio of 0.1 or more and less than 3 is denoted as C) | –
4 | CC[C@H](C)[C@@H]1NC(=O)[C@H](CC(C)C)N(C)C(=O)C[C@@H](C(=O)N2CCOCC2)N(C)C(=O)[C@H](C2CCCC2)N(C)C(=O)C2(CCCC2)NC(=O)[C@@H]2CCCN2C(=O)[C@H](CCc2ccc(C(F)(F)F)c(Cl)c2)NC(=O)CN(C)C(=O)[C@H](Cc2ccc(OC(F)(F)F)cc2)N2CCCCC[C@@H](C2=O)N(C)C(=O)CN(C)C1=O [PP0615] | – | – | – | NRAS/KRAS (ratio of KD value with respect to NRAS to KD value with respect to KRAS) [1]: B (a compound having 3 or more and less than 10 is denoted as B); Kd [2, 4]: 6.2 nM; HRAS/KRAS (ratio of KD value with respect to HRAS to KD value with respect to KRAS) [3]: B (a compound having 3 or more and less than 10 is denoted as B)
5 | CC[C@H](C)[C@@H]1NC(=O)[C@H](CC2CC2)N(C)C(=O)C[C@@H](C(=O)N2CCCC2)N(C)C(=O)[C@H](C2CCCC2)N(C)C(=O)C2(CCCC2)NC(=O)[C@@H]2C[C@@H](C(F)(F)F)CN2C(=O)[C@H](CCc2cc(F)c(C(F)(F)F)c(F)c2)NC(=O)CN(C)C(=O)[C@H](Cc2ccc(C(F)(F)F)cc2)N2CC/C=C\C[C@@H](C2=O)N(C)C(=O)CN(C)C1=O [PP1506] | – | – | – | NRAS/KRAS (ratio of KD value for NRAS to KD value for KRAS) ([1]; KD ratio class): AA (a compound having 20 or more is denoted as AA); Kd ([2]; SPR, Single Cycle Kinetics, 1:1 binding model): 0.34 nM; HRAS/KRAS (ratio of KD value for HRAS to KD value for KRAS) ([3]; KD ratio class): A (a compound having 10 or more and less than 20 is denoted as A)

More lines, main results first:

Row | Kd ([2]; SPR, Single Cycle Kinetics) | SMILES | NRAS/KRAS (ratio of KD value for NRAS to KD value for KRAS) [1] | HRAS/KRAS (ratio of KD value for HRAS to KD value for KRAS) [3] | further results
6 | 0.21 nM | CCC[C@H]1C(=O)N[C@@H](C2CCCC2)C(=O)N(C)CC(=O)N(C)[C@H]2C/C=C\CCN(C2=O)[C@@H](Cc2ccc(C)cc2)C(=O)N(C)CC(=O)N[C@@H](CCc2ccc(C(F)(F)F)c(Cl)c2)C(=O)N2C[C@H](OCC)C[C@H]2C(=O)NC2(CC(C)(C)C2)C(=O)N(C)[C@@H](C2CCCC2)C(=O)N(C)[C@H](C(=O)N(C)C)CC(=O)N1C [PP2198] | A (a compound having 10 or more and less than 20 is denoted as A) | A (a compound having 10 or more and less than 20 is denoted as A) | –
7 | 0.055 nM | CCO[C@@H]1C[C@H]2C(=O)NC3(CCC3)C(=O)N(C)[C@@H](C3CCCC3)C(=O)N(C)[C@H](C(=O)N(C)C)CC(=O)N(C)[C@@H](CC(C)C)C(=O)N[C@@H]([C@@H](C)CC)C(=O)N3CC[C@H]3C(=O)N(C)[C@H]3C[C@@H](C)CCN(C3=O)[C@@H](Cc3ccc(C(F)(F)F)cc3)C(=O)N(C)CC(=O)N[C@@H](CCc3cc(F)c(C(F)(F)F)c(F)c3)C(=O)N2C1 [PP1019] | C (A compound having a KD ratio of 0.1 or more and less than 3 is denoted as C) | B (a compound having 3 or more and less than 10 is denoted as B) | –
